Experimental data published in patent US20150044193A1, “COMPOSITIONS AND METHODS FOR THE TREATMENT OF ALTERED a-SYNUCLEIN FUNCTION” (Neuraltus Pharmaceuticals, Inc., priority 2008, published 2015).
“Also recorded” adds a separate entry of the source.

Tests used:
α-synuclein [1] = assay: Western blot of α-synuclein in differentiated SH-SY5Y cells exposed to CBE; type: cell-based, human
Description: (§1) The treatment paradigm is depicted in FIG. 1. SH-SY5Y cells were grown in Dulbecco's modified Eagle medium with 10% fetal calf serum, 2 mM glutamine, and were subcultured 1:5 with TrypLE (GIBCO/Invitrogen; Carlsbad, Calif.) using standard tissue culture techniques. The cells were differentiated in neurobasal media supplemented with B-27 and 40 μM retinoic acid for 7 days (Pahlman et al., 1984). Cells were exposed to CBE at doses of 0, 12.5, 25, 50, 100 or 200 μM in dimethyl sulfoxide (DMSO; Sigma Chemicals; St. Louis, Mo.) for 48 h at 37° C. At this time, cultures were washed with HBSS and trypsinized for 10 min followed by centrifugation at 1,000×g for 10 min to pellet cells. Media was removed, and cells were lysed in 10 mM Tris/1 mM EDTA/protease inhibitor cocktail (1:1000; Sigma) by sonication. Samples were centrifuged at 1,000×g for 10 min; the supernatant fraction was decanted from particulate fraction. Following determination of protein concentration using the BCA protein assay (Pierce Chemicals, Rockford, Ill.), samples were frozen until used for Western blot analysis experiments.
Fractions from ventral mesencephalon separated by the centrifugation were utilized for immunoblotting experiments. Following homogenization in 10 mM Tris/1 mM EDTA/protease inhibitor cocktail (1:1000; Sigma, St. Louis, Mo.) by sonication, samples were centrifuged at 1,000×g for […]. The supernatant fraction (S1) was decanted and stored, and the pellet fraction containing nuclei and large membrane fragments were reconstituted in homogenization buffer (P1 fraction). The protein concentration was measured. After proteins were separated by SDS-PAGE and transferred to nitrocellulose, the blots were blocked and incubated overnight at 4° C. with anti-α-synuclein (Signet; Novus Biologicals, Littleton, Colo.; Abcam, Cambridge, Mass.; Santa Cruz Biotechnology, Santa Cruz, Calif.) or anti-GAPDH (Sigma). Appropriate secondary antibodies conjugated to HRP were applied, and blots were incubated with a chemiluminescent substrate (Pierce) and exposed to Kodak X-Omat Blue Film (Kodak, Rochester, N.Y.). Mouse or rabbit IgG was used in lieu of the primary antibody to ensure specificity in control experiments.
To test determine if the inhibition of GCase would elicit changes in cellular α-synuclein level, the protein levels were evaluated by using Western blot analysis in non-differentiated SH-SY5Y cells and cells differentiated to the neuronal phenotype, at 48 h following exposure to CBE. […] In order to determine whether increased levels of the protein were due to enhanced transcription, RT-PCR was performed to measure transcript levels in SH-SY5Y treated with CBE. […]

α-synuclein [2] = assay: Western blot of α-synuclein in non-differentiated SH-SY5Y cells exposed to CBE; type: cell-based, human; details: non-differentiated neuroblastoma cells, 48 h exposure
Description: as §1
To test determine if the inhibition of GCase would elicit changes in cellular α-synuclein level, the protein levels were evaluated by using Western blot analysis in non-differentiated SH-SY5Y cells and cells differentiated to the neuronal phenotype, at 48 h following exposure to CBE. […]

α-synuclein mRNA [3] = assay: RT-PCR of α-synuclein mRNA in SH-SY5Y cells treated with CBE; type: cell-based, human
Description: […] The cDNAs were prepared by reverse transcription (Superscript III; Invitrogen). PCR was performed using the ABI PRISM 7000 Sequence Detection System and primers. The cycle number at which each PCR reaction reached a significant threshold (CT) during the log phase of the amplification was used as a relative measure of transcript expression. The CT of the α-synuclein gene was calibrated against that of the reference gene […].
To test determine if the inhibition of GCase would elicit changes in cellular α-synuclein level, the protein levels were evaluated by using Western blot analysis in non-differentiated SH-SY5Y cells and cells differentiated to the neuronal phenotype, at 48 h following exposure to CBE. […] In order to determine whether increased levels of the protein were due to enhanced transcription, RT-PCR was performed to measure transcript levels in SH-SY5Y treated with CBE. […] These findings indicate that increased α-synuclein levels observed following CBE exposure are not due to enhanced expression (FIG. 3b).

SH-SY5Y cells = assay: Overt toxicity in SH-SY5Y cells treated with GCase inhibitor; type: cell-based, human; details: SH-SY5Y cells treated with CBE
α-synuclein [4] = assay: Western blot of α-synuclein in ventral mesencephalon fractions of CBE-treated mice; type: in vivo, C57BL/6 mice; details: single i.p. 200 mg/kg, 48 h
Description: (§2) The administration paradigm is depicted in FIG. 2. Mice (C57BL/6) were maintained on a 12 h light-dark cycle and given food and drinking water ad libitum. All animal procedures and care methods were approved by the Institutional Animal Care and Usage Committee. In experiments to test the effects of CBE on α-synuclein protein, C57BL/6 male mice, aged 8 weeks, were used as previously described with some modifications (Kanfer et al., 1975, Adachi and Volk, 1977, Kanfer et al., 1982). Mice (n=8/group) received a single i. p. injection of 200 mg/kg CBE (Sigma) in DMSO or the vehicle alone and killed 2 days after injection. For Western blot analyses, brains were removed, dissected on ice and frozen on dry ice until needed (Manning-Bog et al., 2002, Purisai et al., 2005). For experiments utilizing immunohistochemistry, brains were immersion fixed in 4% paraformaldehyde and successively cryoprotected in 10 and 30% sucrose over the course of 72 h (Manning-Bog et al., 2002, Manning-Bog et al., 2003). Brains were sectioned at 40-μm intervals and stored in cryopreservative solution at −20° C. until needed.
Fractions from ventral mesencephalon separated by the centrifugation were utilized for immunoblotting experiments. Following homogenization in 10 mM Tris/1 mM EDTA/protease inhibitor cocktail (1:1000; Sigma, St. Louis, Mo.) by sonication, samples were centrifuged at 1,000×g for […]. The supernatant fraction (S1) was decanted and stored, and the pellet fraction containing nuclei and large membrane fragments were reconstituted in homogenization buffer (P1 fraction). The protein concentration was measured. […]
C57BL/6 mice were exposed to a single injection of CBE and assessed for changes in α-synuclein at 48 h to determine whether diminished GCase activity is associated with alterations in the protein in vivo, specifically within the substantia nigra. […] In tissue homogenates from ventral mesencephalon of CBE vs. DMSO (vehicle)-treated mice, α-synuclein immunoreactivity was assessed by Western blot analysis.

α-synuclein [5] = assay: α-synuclein immunohistochemistry in brain of CBE-treated mice; type: in vivo, C57BL/6 mice; details: single 200 mg/kg, 48 h
Description: as §2, with “needed. […]” for “needed.”
The effects of CBE exposure on α-synuclein within the ventral mesencephalon were also assessed histologically with immunohistochemistry. […]

GFAP = GFAP immunohistochemistry (astroglial activation) in brain of CBE-treated mice; type: in vivo, C57BL/6 mice; details: single 200 mg/kg, 48 h
Description: as §2, with “Brains were sectioned at 40-μm intervals and stored in cryopreservative solution at −20° C. until needed.” left out
Substantia nigra-containing tissue sections were immunostained using an antibody for the astrocytic marker, glial fibrillary acidic protein (GFAP). […] Alternatively, it may be that upregulation is responsible for increased α-synuclein levels in astrocytes. α-synuclein has been detected in cultured human astrocytes, and its expression level is responsive to cytokine exposure (Tanji et al., 2001).

α-synuclein [6] = assay: α-synuclein in substantia nigra of aged mice treated sub-chronically with CBE; type: in vivo; details: sub-chronic CBE vs. DMSO
Excerpt: It is likely that sustained glucocerebrosidase inhibition promotes increased levels of the α-synuclein expression protein.

nigral neurons = assay: Silver grain accumulation (degenerating neurons) in substantia nigra of CBE-treated mice; type: in vivo; details: CBE- vs. DMSO-treated mice
α-synuclein mRNA [7] = details: astroglial cultures challenged with CBE; cited from earlier work

In the case of `O[C@H]1[C@H](O)[C@@H](O)[C@@H]2O[C@@H]2[C@@H]1O` (racemic) [CBE, Conduritol B epoxide], the “immunoreactivity for α-synuclein in tissue culture” value (α-synuclein [1]; CBE-exposed neuroblastoma cells differentiated to neuronal phenotype) is reported as “increased immunoreactivity for α-synuclein”, the “CBE concentrations at which increased α-synuclein levels were seen” value (α-synuclein [1]; differentiated SH-SY5Y cells, 48 h, Western blot) is reported as 50 to 200 µM and the “dose at which increased α-synuclein protein levels peak” value (α-synuclein [1]; differentiated SH-SY5Y cells, 48 h, doses 0-200 μM tested) is reported as 50 µM. The “α-synuclein protein levels (Western blot)” value (α-synuclein [1]; differentiated SH-SY5Y cells, 48 h exposure, CBE vs. vehicle) was “increased levels of α-synuclein protein were observed”, the “α-synuclein protein levels (Western blot)” value (α-synuclein [2]) was “No change in α-synuclein was detected” and the “α-synuclein gene expression (RT-PCR)” value (α-synuclein mRNA [3]; SH-SY5Y, any dose tested, 24 h following CBE treatment) was “No change in α-synuclein gene expression was detected”. For the same compound, the “α-synuclein transcription (mRNA, RT-PCR)” value (α-synuclein mRNA [3]; differentiated SH-SY5Y, increasing concentrations of CBE, (FIG. 3B legend)) was “No change in α-synuclein transcription was detected”, the “overt toxicity within cells” value (SH-SY5Y cells) was “no overt toxicity” and the “higher molecular forms of α-synuclein (SDS-stable aggregates)” value (α-synuclein [4]) was “No immunoreactivity for higher molecular forms of α-synuclein”. The “α-synuclein levels in P1 (particulate) fraction, monomeric 19 kDa band” value (α-synuclein [4]; CBE vs. DMSO, 200 mg/kg) was “Denser α-synuclein-positive bands; also recorded: levels of α-synuclein were increased in the particulate fraction; also recorded: an increase in α-synuclein levels”, the “α-synuclein levels in S1 (supernatant) fraction” value (α-synuclein [4]; CBE vs. DMSO, 200 mg/kg) was “no alteration; also recorded: no change” and the “α-synuclein in other brain regions (cortex, hippocampus)” value (α-synuclein [5]) was “No obvious changes in α-synuclein; also recorded: No alteration in protein levels”. The “α-synuclein immunoreactivity in substantia nigra neurons” value (α-synuclein [5]; CBE vs. vehicle) was “robust immunoreactivity was observed within the cell bodies; also recorded: enhanced immunoreactivity for α-synuclein was detected within the cytoplasm and cell nuclei; also recorded: accumulation of the protein within neuronal cell bodies; also recorded: apparent increase; also recorded: accumulation of α-synuclein (FITC) within cell bodies and processes”, the “α-synuclein within astrocytes of substantia nigra (dual-label immunofluorescence)” value (GFAP) was “enhanced α-synuclein was also detected within activated astrocytes; also recorded: colocalization of α-synuclein immunoreactivity was observed within astrocytes” and the “GFAP immunoreactivity / astroglial activation in substantia nigra” value (GFAP; CBE vs. vehicle) was “astroglial activation, as observed by GFAP immunoreactivity, was apparent; also recorded: apparent increase; also recorded: Glial activation was robust”. The “α-synuclein expression within substantia nigra” value (α-synuclein [6]) was “Increased α-synuclein expression”, the “silver grains in nigral neurons (degenerating neurons)” value (nigral neurons) was “Accumulation of silver grains in nigral neurons” and the “expression of α-synuclein mRNA” value (α-synuclein mRNA [7]) was “enhanced expression of α-synuclein mRNA”.
